Consider 65 compounds from patent publication US9428456B2, “1-[m-carboxamido(hetero)aryl-methyl]-heterocyclyl-carboxamide derivatives” (Actelion Pharmaceuticals Ltd., priority 2012, dated 2016).

In this experiment the target is CXCR7 (Homo sapiens (Human), UniProt P25106). Description: PathHunter CHO-K1 CXCR7 b-arrestin assay (agonistic activity). Particulars: PathHunter CHO-K1 CXCR7 b-arrestin cell line. In kind it is cell-based. An outline of the steps: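 CHO-K1 cells co-expressing ProLink-tagged CXCR7 and EA-fused β-arrestin 2 (enzyme fragment complementation); compounds added in HBSS/20 mM HEPES/0.2% BSA after 3–4 h in OPTIMEM, 90 min at 37 °C. Chemiluminescent β-gal signal read after 1 h detection at room temperature; EC50 reported as geometric mean of several measurements.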
Chain of CXCR7 (P25106 whole entry, the tested form may be a part): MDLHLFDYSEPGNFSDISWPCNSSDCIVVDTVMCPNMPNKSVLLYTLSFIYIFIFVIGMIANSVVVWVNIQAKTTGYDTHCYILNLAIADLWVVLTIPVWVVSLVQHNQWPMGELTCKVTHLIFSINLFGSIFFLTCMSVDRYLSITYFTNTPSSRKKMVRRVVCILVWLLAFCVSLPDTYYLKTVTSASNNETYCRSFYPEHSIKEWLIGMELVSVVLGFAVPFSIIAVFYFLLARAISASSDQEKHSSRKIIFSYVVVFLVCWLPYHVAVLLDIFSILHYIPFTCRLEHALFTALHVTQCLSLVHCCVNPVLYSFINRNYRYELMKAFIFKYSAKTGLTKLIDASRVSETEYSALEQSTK
Chain of CXCR7 (P32121 whole entry partner, the tested form may be a part): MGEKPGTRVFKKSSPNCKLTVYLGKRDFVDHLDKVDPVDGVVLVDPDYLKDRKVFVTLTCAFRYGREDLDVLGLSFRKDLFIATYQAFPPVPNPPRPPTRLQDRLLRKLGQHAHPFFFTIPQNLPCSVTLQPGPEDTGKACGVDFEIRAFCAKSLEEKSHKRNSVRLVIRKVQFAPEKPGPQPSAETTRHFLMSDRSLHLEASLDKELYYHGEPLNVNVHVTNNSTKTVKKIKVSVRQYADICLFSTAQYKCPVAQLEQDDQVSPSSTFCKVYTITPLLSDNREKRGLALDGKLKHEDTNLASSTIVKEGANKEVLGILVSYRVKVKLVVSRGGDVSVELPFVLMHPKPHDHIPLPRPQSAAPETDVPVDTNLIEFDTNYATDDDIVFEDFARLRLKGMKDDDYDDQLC
On to `CC(C)(C)NC(=O)C1CCN(Cc2cccc(NC(=O)c3cccnn3)c2)CC1` [Example 1.322], for which the EC50 amounted to 4 nM.

As to `Cc1cc(CN2CCC(C(=O)NC(C)(C)C)CC2)cc(NC(=O)c2cncc(C)c2)c1` [Example 1.317], a half-maximal effect (EC50) was put at 76 nM.

Compound `O=C(Nc1cccc(CN2CCC(C(=O)NC3CCCC3)CC2)c1)c1cccc(C(F)(F)F)n1` [Example 1.208] returned an EC50 of 0.6 nM. This EC50 lies about 130-fold lower than the previous one.

With `CC(c1cccc(NC(=O)c2cccc(C(F)(F)F)n2)c1)N1CCC(C(=O)NC2CCCCC2)CC1` (racemic) [Example 1.187], it took 7 nM to reach a half-maximal effect (EC50).

Consider `CC(C(=O)Nc1cccc(CN2CCC(C(=O)NC(C)(C)C)CC2)c1)c1ccc(Cl)cc1` (centres unmarked) [Example 1.312], for which the EC50 was 8 nM.

`COc1cccc(CC(=O)Nc2cccc(CN3CCC(C(=O)NC4CCCCC4)CC3)c2)c1` [Example 1.047]: it took 17 nM to reach a half-maximal effect (EC50).

Turning to `O=C(Nc1cccc(CN2CCC(C(=O)NC3CCCCC3)CC2)c1)c1ccc(F)c(F)c1` [Example 1.129], the EC50 is 2 nM.

`CCc1cncc(C(=O)Nc2cccc(CN3CCC(C(=O)NC(C)(C)C)CC3)c2)c1` [Example 1.241] returned an EC50 of 4 nM.

Take `Cc1ccc(CN2CCC(C(=O)NC(C)(C)C)CC2)cc1NC(=O)c1cccc(C(F)(F)F)n1` [Example 1.301]: the EC50 amounted to 2 nM.

Regarding `CC(C)(C)NC(=O)C1CCN(Cc2cccc(NC(=O)c3ccc4snnc4c3)c2)CC1` [Example 1.355], a half-maximal effect (EC50) was put at 3 nM.

As to `CCC(C)(C)NC(=O)C1CCN(Cc2cccc(NC(=O)c3ccc(C(F)(F)F)c[n+]3[O-])c2)CC1` [Example 1.347], the EC50 came out at 16 nM.

Take `C=CC(=O)Nc1cccc(CN2CCC(C(=O)NC(C)(C)C)CC2)c1` [Example 1.336]: a half-maximal response (EC50) required 83 nM.

On to `Cc1ccc(F)c(C(=O)Nc2cccc(CN3CCC(C(=O)NC4CCCCC4)CC3)c2)c1` [Example 1.116], for which a half-maximal response (EC50) required 6 nM.

The compound `CC(c1cccc(NC(=O)c2ccncn2)c1)N1CCC(C(=O)NC2CCCCC2)CC1` (racemic) [Example 1.193] registered an EC50 of 23 nM.

`Cc1cccc(C(=O)Nc2cccc(CN3CCC(C(=O)NC4CC4)CC3)c2)n1` [Example 1.201]: the EC50 amounted to 3 nM.

Compound `CC(C)(C)NC(=O)C1CCN(Cc2cccc(NC(=O)Cc3ccccc3)c2)CC1` [Example 1.259] showed an EC50 of 4 nM. This EC50 and that of the compound before are within 1.5-fold of each other.

The compound `CCN(CC)c1ccc(C(=O)Nc2cccc(C(C)N3CCC(C(=O)NC4CCCCC4)CC3)c2)cn1` (racemic) [Example 1.196] yielded an EC50 of 491 nM. This EC50 is about 120-fold higher than that of the compound before.

Compound `CC(C)(C)NC(=O)C1CCN(Cc2cccc(NC(=O)c3ccc(Cl)cn3)c2)CC1` [Example 1.339] gave an EC50 of 0.6 nM. This EC50 lies about 820-fold lower than the previous one.

`COc1ccccc1C(=O)Nc1cccc(CN2CCC(C(=O)NC3CCCCC3)CC2)c1` [Example 1.009] registered an EC50 of 17 nM.

`O=C(Nc1cccc(CN2CCC(C(=O)NC3CCCCC3)CC2)c1)c1ccncc1` [Example 1.053] displayed an EC50 of 40 nM.

`CC(C)(C)NC(=O)C1CCN(Cc2cccc(NC(=O)c3ccc(C(F)(F)F)c[n+]3[O-])c2)CC1` [Example 1.348] had an EC50 of 8 nM.

Compound `CCc1ccc(NC(=O)c2ccc(F)cc2)cc1CN1CCC(C(=O)NC(C)(C)C)CC1` [Example 1.334] had an EC50 of 17 nM.

As to `Cc1nc2cc(C(=O)Nc3cccc(CN4CCC(C(=O)NC(C)(C)C)CC4)c3)ccc2s1` [Example 1.354], the EC50 is 108 nM.

Compound `CC(C)(C)NC(=O)C1CCN(Cc2cccc(NC(=O)c3cccnc3C(F)(F)F)c2)CC1` [Example 1.231] yielded an EC50 of 99 nM.

Regarding `CC(C)(C)NC(=O)C1CCN(Cc2cccc(NC(=O)Cc3cccc(C(F)(F)F)c3Cl)c2)CC1` [Example 1.249], the EC50 amounted to 2 nM.

Take `Cc1cncc(C(=O)Nc2cccc(C(C)N3CCC(C(=O)NC4CCCCC4)CC3)c2)c1` (racemic) [Example 1.172]: the EC50 was determined as 28 nM.

Consider `O=C(CC1Cc2ccccc2C1)Nc1cccc(CN2CCC(C(=O)NC3CCCCC3)CC2)c1` [Example 1.052], for which the EC50 came out at 36 nM.

`O=C(Nc1cccc(CN2CCC(C(=O)NC3CCCCC3)CC2)c1)c1cc(Cl)ccn1` [Example 1.077] came in with a 50% effective concentration (EC50) of 3 nM.

Regarding `Cc1cc(C(=O)Nc2cccc(C(C)N3CCC(C(=O)NC4CCCCC4)CC3)c2)ccn1` (racemic) [Example 1.184], the EC50 is 33 nM. Compared with the last compound, the EC50 is about 11-fold higher.

Take `CC(C)(C)NC(=O)C1CCN(Cc2cccc(NC(=O)c3ccc(N)cn3)c2)CC1` [Example 8.001, 5-Amino-pyridine-2-carboxylic acid [3-(4-tert-butylcarbamoyl-piperidin-1-ylmethyl)-phenyl]-amide]: the EC50 came to 4 nM.

For `CCc1cc(CN2CCC(C(=O)NC(C)(C)C)CC2)cc(NC(=O)c2ccc(F)cc2)c1` [Example 1.331], it took 62 nM to reach a half-maximal effect (EC50).

Compound `Cc1ccc(C(=O)Nc2cccc(CN3CCC(C(=O)NC4CCCCC4)CC3)c2)s1` [Example 1.281] had an EC50 of 3 nM.

For `CC(C)(C)NC(=O)C1CCN(Cc2cccc(NC(=O)c3cccc(C(F)(F)F)[n+]3[O-])c2)CC1` [Example 1.345], the EC50 is 1 nM.

Compound `CC(c1cccc(NC(=O)c2cc(Cl)ccn2)c1)N1CCC(C(=O)NC2CCCCC2)CC1` (racemic) [Example 1.180] displayed an EC50 of 51 nM.

`COC(=O)c1cncc(C(=O)Nc2cccc(CN3CCC(C(=O)NC4CCCCC4)CC3)c2)c1` [Example 1.350] had an EC50 of 29 nM.

`C[C@H]1C[C@@H](C(=O)NC(C)(C)C)CCN1Cc1cccc(NC(=O)c2cccc(C(F)(F)F)n2)c1` (racemic) [Example 2.102, rac-6-Trifluoromethyl-pyridine-2-carboxylic acid [3-((2S*,4S*)-4-tert-butylcarbamoyl-2-methyl-piperidin-1-ylmethyl)-phenyl]-amide] had an EC50 of 4 nM.

On to `Cc1ccc(C(=O)Nc2cccc(CN3CCC(C(=O)NC4CCCCC4)CC3)c2)c(F)c1` [Example 1.119], for which the EC50 came out at 6 nM. Compared with the last compound, the EC50 is about 1.5-fold higher.

Consider `CCC(C)NC(=O)C1CCCN(Cc2cccc(NC(=O)c3cncc(C)c3)c2)CC1` (racemic) [Example 1.288], for which a half-maximal response (EC50) required 33 nM.

In turn, `O=C(Nc1cccc(CN2CCC(C(=O)NC3CCCCC3)CC2)c1)c1ccc(Cl)s1` [Example 1.282] came in with a 50% effective concentration (EC50) of 5 nM. This EC50 lies about 6.6-fold lower than the previous one.

`O=C(Nc1cccc(CN2CCC(C(=O)NC3CCCCC3)CC2)c1)c1c(F)cccc1C(F)(F)F` [Example 1.145] came in with an EC50 of 425 nM.

On to `CC(c1cccc(NC(=O)c2ccc(C(F)(F)F)cc2)c1)N1CCC(C(=O)NC2CCCCC2)CC1` (racemic) [Example 1.177], for which the EC50 was 37 nM.

In turn, `Cc1cc(C(=O)Nc2cccc(CN3CCC(C(=O)NC4CCCCC4)CC3)c2)ccc1F` [Example 1.118] registered an EC50 of 3 nM.

`CC(C)(C)NC(=O)C1CCN(Cc2cccc(NC(=O)c3cnc4ccccc4c3)c2)CC1` [Example 1.233]: the midpoint of the response, the EC50, lay at 2 nM.

On to `O=C(Nc1cccc(CN2CCC(C(=O)NC3CCCCC3)CC2)c1)C1CCCC1` [Example 1.017], for which the EC50 turned out to be 29 nM.

With `O=C(Nc1cccc(CN2CCC(C(=O)NC3CCCCC3)CC2)c1)c1cnc2[nH]ccc2c1` [Example 1.076], the response was half-maximal at 26 nM (EC50).

In turn, `O=C(Nc1cccc(CN2CCC(C(=O)NC3CCCCC3)CC2)c1)c1ccc(Cl)c(Cl)c1` [Example 1.140] came in with an EC50 of 5 nM.

In turn, `COc1c(CN2CCC(C(=O)NC(C)(C)C)CC2)cccc1NC(=O)c1ccc(F)cc1` [Example 1.321] came in with an EC50 of 6 nM.

In turn, `Cc1cc(C(=O)Nc2cccc(C(C)N3CCC(C(=O)NC4CCCCC4)CC3)c2)c2cnn(C(C)C)c2n1` (racemic) [Example 1.186] displayed an EC50 of 86 nM.

`CC(C(=O)Nc1cccc(CN2CCC(C(=O)NC(C)(C)C)CC2)c1)c1ccccc1` (racemic) [Example 1.079] returned an EC50 of 3 nM.

Turning to `CC(C)(C)NC(=O)C1CCN(Cc2cccc(NC(=O)C3(c4ccc(Cl)cc4Cl)CC3)c2)CC1` [Example 1.268], the EC50 stood at 2 nM.

The compound `COc1ccc(CN2CCC(C(=O)NC(C)(C)C)CC2)cc1NC(=O)c1cncc(C)c1` [Example 1.305] gave an EC50 of 7 nM.

With `CCNC(=O)C1CCCN(Cc2cccc(NC(=O)c3cncc(C)c3)c2)CC1` (racemic) [Example 1.287], it took 181 nM to reach a half-maximal effect (EC50). This EC50 is about 26-fold higher than that of the compound before.

`O=C(Nc1cccc(CN2CCC(C(=O)NC3CCCCC3)CC2)c1)c1cccc[n+]1[O-]` [Example 1.080] displayed an EC50 of 14 nM. Compared with the last compound, the EC50 is about 13-fold lower.

For the compound `CCc1ccc(CN2CCC(C(=O)NC(C)(C)C)CC2)cc1NC(=O)c1ccc(F)cc1` [Example 1.328], the EC50 was found to be 8 nM.

The compound `CC(c1cccc(NC(=O)c2ccc(F)cc2)c1)N1CCC(C(=O)NC2CCCCC2)CC1` (centres unmarked) [Example 1.166] came in with an EC50 of 10 nM.

In the case of `CCC(C)(C)NC(=O)C1CCN(Cc2cccc(NC(=O)c3ncc(Cl)cc3F)c2)CC1` [Example 1.343], a half-maximal effect (EC50) was put at 1 nM.

In the case of `O=C(Nc1ccc(Cl)c(CN2CCC(C(=O)NC3CCCC3)CC2)c1)c1ccc(F)cn1` [Example 1.224], the EC50 is 0.4 nM.

`Cc1ccc(C(=O)Nc2cccc(CN3CCC(C(=O)NC4CCCCC4)CC3)c2)cc1C` [Example 1.113]: the midpoint of the response, the EC50, lay at 7 nM.

Regarding `CC(C)(C)NC(=O)C1CCN(Cc2cccc(NC(=O)c3cccc(S(C)(=O)=O)c3)c2)CC1` [Example 1.352], the EC50 was 71 nM. Compared with the last compound, the EC50 is about 10-fold higher.

Take `Cc1cncc(C(=O)Nc2cccc(CN3CCC(C(=O)NC4CCCCC4)CC3)c2)c1` [Example 1.060]: a half-maximal effect (EC50) was put at 4 nM.

In turn, `Cc1ccnc(C(=O)Nc2cccc(CN3CCC(C(=O)NC4CCCCC4)CC3)c2)c1` [Example 1.082] gave an EC50 of 4 nM.

For `Cc1cncc(C(=O)Nc2cccc(CN3CCCC(C(=O)NC4CCCCC4)CC3)c2)c1` (racemic) [Example 1.291], the half-maximal effective concentration (EC50) amounted to 134 nM.

In the case of `O=C(Nc1cccc(CN2CCC(C(=O)NC3CCCCC3)CC2)c1)c1ccno1` [Example 1.049], the EC50 is 7 nM. Compared with the last compound, the EC50 is about 19-fold lower.

The compound `C/C=C/C(=O)Nc1cccc(CN2CCC(C(=O)NC(C)(C)C)CC2)c1` [Example 1.335] yielded an EC50 of 21 nM.

With `Cc1cccc(C(=O)Nc2cccc(C(C)N3CCC(C(=O)NC4CCCCC4)CC3)c2)n1` (racemic) [Example 1.182], a half-maximal effect (EC50) was put at 7 nM.

A word on the EC50: it is the concentration at which the effect is half-maximal.
